Assay results reported in the NIST ThermoML archive (doi:10.1016/j.jct.2014.07.026).

Assay: mn = molality of the nth substance listed, in mol/kg
Conditions: 100 kPa, Liquid; for mass density: Vibrating tube method; for speed of sound: Frequency=2 MHz, Linear variable-path acoustic interferometer

CCCCn1cc[n+](C)c1.CC[C@H](C)[C@H](N)C(=O)[O-] [1-butyl-3-methyl-1H-imidazolium L-isoleucinate] + O
Conditions	mass density [kg/m3]	speed of sound [m/s]
293.15 K, m1 = 0.02906	999.041	–
293.15 K, m1 = 0.04398	999.456	–
293.15 K, m1 = 0.05752	999.834	–
293.15 K, m1 = 0.0722	1000.24	–
293.15 K, m1 = 0.07899	1000.43	–
293.15 K, m1 = 0.1182	1001.49	–
293.15 K, m1 = 0.1456	1002.23	–
293.15 K, m1 = 0.1662	1002.78	–
293.15 K, m1 = 0.1765	1003.05	–
293.15 K, m1 = 0.2502	1004.97	–
293.15 K, m1 = 0.2937	1006.09	–
293.15 K, m1 = 0.3356	1007.15	–
293.15 K, m1 = 0.3802	1008.26	–
298.15 K, m1 = 0.02906	997.851	–
298.15 K, m1 = 0.04398	998.255	–
298.15 K, m1 = 0.0472	–	1507.8
298.15 K, m1 = 0.05752	998.616	–
298.15 K, m1 = 0.0722	999.019	–
298.15 K, m1 = 0.07899	999.193	–
298.15 K, m1 = 0.1029	–	1519.2
298.15 K, m1 = 0.1182	1000.22	–
298.15 K, m1 = 0.1456	1000.93	–
298.15 K, m1 = 0.1481	–	1528.4
298.15 K, m1 = 0.1662	1001.47	–
298.15 K, m1 = 0.1765	1001.73	–
298.15 K, m1 = 0.1974	–	1538.3
298.15 K, m1 = 0.2422	–	1547.2
298.15 K, m1 = 0.2502	1003.6	–
298.15 K, m1 = 0.2927	–	1557.1
298.15 K, m1 = 0.2937	1004.66	–
298.15 K, m1 = 0.3356	1005.72	–
298.15 K, m1 = 0.3455	–	1567.6
298.15 K, m1 = 0.3802	1006.75	–
298.15 K, m1 = 0.3987	–	1578.2
298.15 K, m1 = 0.4518	–	1588.5
298.15 K, m1 = 0.5064	–	1599.2
303.15 K, m1 = 0.02906	996.433	–
303.15 K, m1 = 0.04398	996.821	–
303.15 K, m1 = 0.05752	997.168	–
303.15 K, m1 = 0.0722	997.554	–
303.15 K, m1 = 0.07899	997.73	–
303.15 K, m1 = 0.1182	998.731	–
303.15 K, m1 = 0.1456	999.436	–
303.15 K, m1 = 0.1662	999.965	–
303.15 K, m1 = 0.1765	1000.2	–
303.15 K, m1 = 0.2502	1002	–
303.15 K, m1 = 0.2937	1003.05	–
303.15 K, m1 = 0.3356	1004.06	–
303.15 K, m1 = 0.3802	1005.08	–
308.15 K, m1 = 0.03034	994.828	–
308.15 K, m1 = 0.0467	995.242	–
308.15 K, m1 = 0.05983	995.575	–
308.15 K, m1 = 0.07535	995.962	–
308.15 K, m1 = 0.09204	996.388	–
308.15 K, m1 = 0.121	997.102	–
308.15 K, m1 = 0.1452	997.702	–
308.15 K, m1 = 0.1832	998.629	–
308.15 K, m1 = 0.2191	999.468	–
308.15 K, m1 = 0.2631	1000.51	–
308.15 K, m1 = 0.2977	1001.31	–
308.15 K, m1 = 0.3367	1002.21	–
308.15 K, m1 = 0.3802	1003.17	–
313.15 K, m1 = 0.03034	992.995	–
313.15 K, m1 = 0.0467	993.401	–
313.15 K, m1 = 0.05983	993.731	–
313.15 K, m1 = 0.07535	994.106	–
313.15 K, m1 = 0.09204	994.515	–
313.15 K, m1 = 0.121	995.217	–
313.15 K, m1 = 0.1452	995.792	–
313.15 K, m1 = 0.1832	996.685	–
313.15 K, m1 = 0.2191	997.538	–
313.15 K, m1 = 0.2631	998.53	–
313.15 K, m1 = 0.2977	999.299	–
313.15 K, m1 = 0.3367	1000.18	–
313.15 K, m1 = 0.3802	1001.15	–

CC(C)[C@H](N)C(=O)[O-].CCCCn1cc[n+](C)c1 [1-butyl-3-methylimidazolium L-valinate] + O
Conditions	mass density [kg/m3]	speed of sound [m/s]
293.15 K, m1 = 0.03333	999.132	–
293.15 K, m1 = 0.05233	999.647	–
293.15 K, m1 = 0.07111	1000.15	–
293.15 K, m1 = 0.08607	1000.55	–
293.15 K, m1 = 0.1001	1000.93	–
293.15 K, m1 = 0.138	1001.93	–
293.15 K, m1 = 0.1804	1003.02	–
293.15 K, m1 = 0.2187	1004	–
293.15 K, m1 = 0.2653	1005.21	–
293.15 K, m1 = 0.3295	1006.77	–
293.15 K, m1 = 0.3595	1007.51	–
293.15 K, m1 = 0.4046	1008.61	–
293.15 K, m1 = 0.4561	1009.85	–
298.15 K, m1 = 0.03333	997.952	–
298.15 K, m1 = 0.05233	998.454	–
298.15 K, m1 = 0.06361	–	1509.7
298.15 K, m1 = 0.07111	998.947	–
298.15 K, m1 = 0.08607	999.329	–
298.15 K, m1 = 0.1001	999.708	–
298.15 K, m1 = 0.1178	–	1519.6
298.15 K, m1 = 0.138	1000.66	–
298.15 K, m1 = 0.1494	–	1525.3
298.15 K, m1 = 0.1804	1001.72	–
298.15 K, m1 = 0.2009	–	1534.4
298.15 K, m1 = 0.2187	1002.66	–
298.15 K, m1 = 0.2467	–	1542.1
298.15 K, m1 = 0.2653	1003.87	–
298.15 K, m1 = 0.2965	–	1550.5
298.15 K, m1 = 0.3295	1005.34	–
298.15 K, m1 = 0.3434	–	1558.2
298.15 K, m1 = 0.3595	1006.08	–
298.15 K, m1 = 0.4046	1007.11	–
298.15 K, m1 = 0.4049	–	1568.3
298.15 K, m1 = 0.4496	–	1575.2
298.15 K, m1 = 0.4561	1008.32	–
298.15 K, m1 = 0.513	–	1584.9
298.15 K, m1 = 0.5714	–	1593.8
303.15 K, m1 = 0.03333	996.535	–
303.15 K, m1 = 0.05233	997.021	–
303.15 K, m1 = 0.07111	997.503	–
303.15 K, m1 = 0.08607	997.878	–
303.15 K, m1 = 0.1001	998.242	–
303.15 K, m1 = 0.138	999.178	–
303.15 K, m1 = 0.1804	1000.22	–
303.15 K, m1 = 0.2187	1001.13	–
303.15 K, m1 = 0.2653	1002.26	–
303.15 K, m1 = 0.3295	1003.73	–
303.15 K, m1 = 0.3595	1004.44	–
303.15 K, m1 = 0.4046	1005.44	–
303.15 K, m1 = 0.4561	1006.67	–
308.15 K, m1 = 0.03234	994.871	–
308.15 K, m1 = 0.05133	995.354	–
308.15 K, m1 = 0.06493	995.698	–
308.15 K, m1 = 0.08884	996.286	–
308.15 K, m1 = 0.1058	996.698	–
308.15 K, m1 = 0.1347	997.389	–
308.15 K, m1 = 0.181	998.492	–
308.15 K, m1 = 0.2182	999.371	–
308.15 K, m1 = 0.2583	1000.3	–
308.15 K, m1 = 0.3177	1001.66	–
308.15 K, m1 = 0.3591	1002.6	–
308.15 K, m1 = 0.4041	1003.61	–
308.15 K, m1 = 0.4561	1004.69	–
313.15 K, m1 = 0.03234	993.036	–
313.15 K, m1 = 0.05133	993.509	–
313.15 K, m1 = 0.06493	993.842	–
313.15 K, m1 = 0.08884	994.427	–
313.15 K, m1 = 0.1058	994.828	–
313.15 K, m1 = 0.1347	995.499	–
313.15 K, m1 = 0.181	996.579	–
313.15 K, m1 = 0.2182	997.425	–
313.15 K, m1 = 0.2583	998.325	–
313.15 K, m1 = 0.3177	999.623	–
313.15 K, m1 = 0.3591	1000.51	–
313.15 K, m1 = 0.4041	1001.5	–
313.15 K, m1 = 0.4561	1002.64	–
